From ChEMBL document CHEMBL1127928, “Macrolide-type motilin receptor agonists: Assessment of the biological value of the 2- and 4-hydroxyl groups of acid-stable 8,9-anhydroerythromycin A 6,9-hemiacetals” (Bioorg Med Chem Lett, 1994)
Converted amounts (≈) assume the structure as drawn.

Experiments:
Streptococcus pneumoniae = test: Tested for antimicrobial activity against Streptococcus pneumoniae No. 12; assay type: functional
Motilin receptor [1] = molecular target: T1, Motilin receptor (Oryctolagus cuniculus, UniProt A5A4K8); test: In vitro binding affinity towards motilin receptor was determined in rabbit small intestinal smooth muscle tissue homogenate; assay type: tissue-based
T1 sequence (A5A4K8 whole entry): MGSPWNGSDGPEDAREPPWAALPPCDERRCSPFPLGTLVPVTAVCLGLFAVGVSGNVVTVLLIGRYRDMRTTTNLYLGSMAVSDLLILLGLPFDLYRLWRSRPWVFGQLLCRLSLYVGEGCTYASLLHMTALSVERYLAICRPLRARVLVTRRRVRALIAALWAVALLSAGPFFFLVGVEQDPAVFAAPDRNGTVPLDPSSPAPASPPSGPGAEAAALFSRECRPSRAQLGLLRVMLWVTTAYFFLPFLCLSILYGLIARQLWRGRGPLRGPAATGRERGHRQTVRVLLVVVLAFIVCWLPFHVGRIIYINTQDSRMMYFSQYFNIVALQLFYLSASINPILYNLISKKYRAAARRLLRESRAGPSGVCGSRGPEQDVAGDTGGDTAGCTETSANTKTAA

Canis familiaris [2] = test: In vivo contractile activity in the gastric antrum and the small intestine in fasted conscious dogs upon intravenous administration was determined; assay type: functional, Canis lupus familiaris
Oryctolagus cuniculus = organism: Oryctolagus cuniculus; test: In vitro contractile activity was measured in the rabbit duodenum preparation; assay type: functional
Motilin receptor [3] = molecular target: T1, Motilin receptor; test: In vitro binding affinity towards motilin receptor was determined after treatment with hydrochloric acid in rabbit small intestinal smooth muscle tissue homogenate; assay type: tissue-based
Canis familiaris [4] = test: In vivo contractile activity in the gastric antrum and the small intestine in fasted conscious dogs upon intragastric administration was determined; assay type: functional, Canis lupus familiaris
Bacillus subtilis = test: Tested for antimicrobial activity against Bacillus subtilis ATCC 6633; assay type: functional
Klebsiella pneumoniae = test: Tested for antimicrobial activity against Klebsiella pneumoniae IFO 3512; assay type: functional
Staphylococcus aureus = test: Tested for antimicrobial activity against Staphylococcus aureus 209P; assay type: functional

CCC1OC(=O)C(C)C(O[C@H]2C[C@@](C)(OC)CC(C)O2)C(C)[C@@H](OC2OC(C)CC(N(C)C(C)C)[C@H]2O)[C@]2(C)CC(C)=C(O2)[C@H](C)C(=O)[C@]1(C)OC (some centres undefined)
MIC (Streptococcus pneumoniae): 100 µg/mL | IC50 (Motilin receptor [1]): 2.51 nM | MI100 (Canis familiaris [2]): 0.09 µg/kg | EC50 (Oryctolagus cuniculus): 6.17 nM | IC50 (Motilin receptor [3]): 1.78 nM | MI100 (Canis familiaris [4]): 0.3 µg/kg

CCC1OC(=O)C(C)C(O[C@H]2C[C@@](C)(OC)CC(C)O2)C(C)[C@@H](OC2OC(C)CC(N(C)C)[C@H]2O)[C@]2(C)CC(C)=C(O2)[C@H](C)C(=O)[C@]1(C)OC (some centres undefined)
MIC (Bacillus subtilis): 50 µg/mL (≈ 70.2 µM) | MIC (Streptococcus pneumoniae; read-out: MIC): 1600 µM | MIC (Klebsiella pneumoniae): 100 µg/mL (≈ 140 µM) | IC50 (Motilin receptor [1]): 2.29 nM | MI100 (Canis familiaris [2]): 0.4 µg/kg | MIC (Staphylococcus aureus): 100 µg/mL (≈ 140 µM) | EC50 (Oryctolagus cuniculus): 10.5 nM | IC50 (Motilin receptor [3]): 3.89 nM | MI100 (Canis familiaris [4]): 1.2 µg/kg

CCC1OC(=O)C(C)C(O[C@H]2C[C@@](C)(OC)CC(C)O2)C(C)[C@@H](OC2OC(C)CC(N(C)CC)[C@H]2O)[C@]2(C)CC(C)=C(O2)[C@H](C)C(=O)[C@]1(C)OC (some centres undefined)
MIC (Streptococcus pneumoniae): 100 µg/mL | IC50 (Motilin receptor [1]): 3.47 nM | MI100 (Canis familiaris [2]): 0.3 µg/kg | EC50 (Oryctolagus cuniculus): 9.12 nM | IC50 (Motilin receptor [3]): 3.8 nM | MI100 (Canis familiaris [4]): 0.2 µg/kg

CCC1OC(=O)C(C)C(O[C@H]2C[C@@](C)(OC)CC(C)O2)C(C)[C@@H](OC2CC(N(C)C(C)C)CC(C)O2)[C@]2(C)CC(C)=C(O2)[C@H](C)C(=O)[C@]1(C)OC (some centres undefined)
IC50 (Motilin receptor [1]): 1.86 nM | MI100 (Canis familiaris [2]): >70 µg/kg | EC50 (Oryctolagus cuniculus): 209 nM
